# Measured values reported in paper PMC3266433 (Antiviral Research, 2011).
# Structures can show the parent of a compound that is named as a salt. Where two headings read alike, the source gives them in different places.
# Experiments:
# WNV NS2B-NS3pro = WNV NS2B-NS3pro (West Nile virus, UniProt Q9Q6P4); experiment: Steady-state kinetics of WNV NS2B-NS3pro inhibition; format: biochemical
# [1] = molecular target: T1, bovine pancreatic trypsin (Bos taurus, UniProt P00760); experiment: Single-point trypsin inhibition assay to validate selectivity; format: biochemical; settings: 100 μM compound; BOC-GRR-AMC 30 μM
# T1 sequence (P00760 24-246): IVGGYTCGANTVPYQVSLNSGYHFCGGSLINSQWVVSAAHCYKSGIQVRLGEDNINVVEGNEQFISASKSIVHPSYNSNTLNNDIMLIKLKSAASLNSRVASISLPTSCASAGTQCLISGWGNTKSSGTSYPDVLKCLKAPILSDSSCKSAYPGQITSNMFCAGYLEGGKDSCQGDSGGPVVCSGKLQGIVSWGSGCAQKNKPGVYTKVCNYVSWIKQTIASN
# DEN2V NS2B-NS3pro [2] = molecular target: T2, DEN2V NS2B-NS3pro (Dengue virus type 2, UniProt P29990); experiment: Single-point DEN2V NS2B-NS3pro inhibition assay to validate hits; format: biochemical, dengue 2 virus; settings: single-point validation assay
# T2 sequence (P29990 1398-1437): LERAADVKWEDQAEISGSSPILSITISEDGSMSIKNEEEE
# T2 sequence (P29990 1476-1653): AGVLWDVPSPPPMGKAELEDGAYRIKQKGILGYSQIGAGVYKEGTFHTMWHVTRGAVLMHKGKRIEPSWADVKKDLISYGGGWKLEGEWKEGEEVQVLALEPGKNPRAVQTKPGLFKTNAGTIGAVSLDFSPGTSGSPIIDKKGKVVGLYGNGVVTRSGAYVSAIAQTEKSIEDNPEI
# DEN2V NS2B-NS3pro [3] = molecular target: T2, DEN2V NS2B-NS3pro; experiment: Steady-state kinetics of DEN2V NS2B-NS3pro inhibition; format: biochemical, dengue 2 virus; settings: BOC-GRR-AMC 0 to 1.2 mM
# cells = settings: ref Yip et al., 2006; cited from earlier work
# [4] = read-out: Ki1, DEN2V NS2B-NS3pro
# [5] = read-out: Ki2, DEN2V NS2B-NS3pro
# Chain of WNV NS2B-NS3pro (Q9Q6P4 1428-1467): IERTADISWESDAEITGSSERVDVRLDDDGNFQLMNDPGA
# Chain of WNV NS2B-NS3pro (Q9Q6P4 1506-1683): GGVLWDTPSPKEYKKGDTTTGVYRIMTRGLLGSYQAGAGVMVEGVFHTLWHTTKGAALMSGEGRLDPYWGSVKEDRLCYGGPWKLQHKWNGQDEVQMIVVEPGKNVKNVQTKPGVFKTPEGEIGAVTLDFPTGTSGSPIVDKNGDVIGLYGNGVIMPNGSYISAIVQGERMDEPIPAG
Compound,Mechanism (WNV NS2B-NS3pro; WNV NS2B-NS3pro),"Ki (WNV NS2B-NS3pro; read-out: Ki1, WNV NS2B-NS3pro) [µM]","Ki (WNV NS2B-NS3pro; read-out: Ki2, WNV NS2B-NS3pro) [µM]",trypsin inhibition [1],DEN2V protease inhibition (in words) (DEN2V NS2B-NS3pro [2]),Mechanism (DEN2V NS2B-NS3pro [3]; DEN2V NS2B-NS3pro),Ki (DEN2V NS2B-NS3pro [3]; [4]) [µM],Ki (DEN2V NS2B-NS3pro [3]; [5]) [µM],"Ki (WNV NS2B-NS3pro; Ki1, WNV NS2B-NS3pro) [µM]","Ki (WNV NS2B-NS3pro; Ki2, WNV NS2B-NS3pro) [µM]","Ki (DEN2V NS2B-NS3pro [3]; Ki2, DEN2V NS2B-NS3pro) [µM]",CC50 (cell viability reduced by 50%) (cells)
"Cc1cc(C(C)(C)CC(C)(C)C)ccc1OCCOCC[N+](C)(C)Cc1ccccc1.[Cl-] [MS22, Methylbenzethonium chloride]",mixed,141 ± 20,307 ± 80,did not inhibit trypsin,inhibited DEN2V protease,mixed,322 ± 81,160 ± 39,–,–,–,–
"CO[C@H]1C[C@H](O[C@@H]2/C(C)=C/C[C@@H]3C[C@@H](C[C@]4(CC[C@H](C)[C@@H](C5CCCCC5)O4)O3)OC(=O)[C@@H]3C=C(C)/C(=N/O)[C@H]4OC/C(=C\C=C\[C@@H]2C)[C@]43O)O[C@@H](C)[C@@H]1O [MS24, Selamectin]",mixed,–,–,did not inhibit trypsin,inhibited DEN2V protease,mixed,–,–,15 ± 9,28 ± 6,45 ± 8,–
"CCCCC(CC)CNC(=N)NC(=N)NCCCCCCNC(=N)NC(=N)NCC(CC)CCCC (stereo not shown) [MS28, Alexidine hydrochloride]",mixed,–,–,did not inhibit trypsin,inhibited DEN2V protease,mixed inhibition mechanism,–,–,12 ± 1.2,28 ± 5,84 ± 16,low micromolar
"CC[C@H](C)[C@H]1O[C@]2(CC[C@@H]1C)C[C@@H]1C[C@@H](C/C=C(\C)[C@@H](O[C@H]3C[C@H](OC)[C@@H](O[C@H]4C[C@H](OC)[C@@H](O)[C@H](C)O4)[C@H](C)O3)[C@@H](C)/C=C/C=C3\CO[C@@H]4[C@H](O)C(C)=C[C@@H](C(=O)O1)[C@]34O)O2 [MS21, Ivermectin]",mixed,55 ± 18,16 ± 4,did not inhibit trypsin,inhibited DEN2V protease,mixed,79 ± 21,35 ± 4,–,–,–,–
